Source: EPA's ToxValDB 9.5

Test system: Rattus norvegicus
Settings: short-term, duration: 28 days, oral, gavage, M, Sprague-Dawley

Compound `Cc1cccc(Nc2cc(Cl)nc(SCC(=O)O)n2)c1C` [[4-Chloro-6-(2,3-xylidino)-2-pyrimidinylthio]acetic acid] has an LOEL (Clinical chemistry_Globulin) of 6.25 mg/kg-day, an NOEL (Clinical chemistry_Indirect bilirubin) of 25 mg/kg-day and an LOEL (Clinical chemistry_Sorbitol dehydrogenase) of 6.25 mg/kg-day. The NOEL (Clinical chemistry_T bilirubin) was 25 mg/kg-day, the LOEL (Clinical chemistry_Testosterone) was 25 mg/kg-day and the LOEL (Clinical chemistry_Thyroid stimulating hormone) was 25 mg/kg-day. For the same compound, the LOEL (Clinical chemistry_Total bile acids) was 6.25 mg/kg-day, the NOEL (Clinical chemistry_Total bilirubin) was 25 mg/kg-day and the LOEL (Clinical chemistry_Total protein) was 6.25 mg/kg-day. The LOEL (Clinical chemistry_Total thyroxine) was 6.25 mg/kg-day, the NOEL (Clinical chemistry_Total triiodothyronine) was 25 mg/kg-day and the NOEL (Clinical chemistry_Triglycerides) was 25 mg/kg-day. For the same compound, the LOEL (Gene expression_Acox1) was 6.25 mg/kg-day, the LOEL (Gene expression_Acyl-CoA oxidase) was 6.25 mg/kg-day and the LOEL (Gene expression_Altered sperm parameters) was 6.25 mg/kg-day. For the same compound, the LOEL (Gene expression_Cyp2b1) was 6.25 mg/kg-day, the LOEL (Gene expression_Cyp2b2) was 6.25 mg/kg-day and the LOEL (Gene expression_Cyp4a1) was 6.25 mg/kg-day. It also gave an NOEL (Hematology_Erythrocytes) of 25 mg/kg-day, an NOEL (Hematology_Hematocrit) of 25 mg/kg-day and an NOEL (Hematology_Hemoglobin) of 25 mg/kg-day. For the same compound, the NOEL (Hematology_Leukocytes) was 25 mg/kg-day, the NOEL (Hematology_Mean corpuscular hemoglobin concentration) was 25 mg/kg-day and the NOEL (Hematology_Mean corpuscular volume) was 25 mg/kg-day. For the same compound, the NOEL (Hematology_Platelets) was 25 mg/kg-day, the NOEL (Hematology_Reticulocytes) was 25 mg/kg-day and the NOEL (Hematology_S. neutrophils) was 25 mg/kg-day. For the same compound, the NOEL (Nonneoplastic effects_Bone marrow - Hypocellularity) was 25 mg/kg-day, the NOEL (Nonneoplastic effects_Epididymis - Duct, exfoliated germ cell) was 25 mg/kg-day and the NOEL (Nonneoplastic effects_Epididymis - Epithelium, apoptosis) was 25 mg/kg-day. For the same compound, the NOEL (Nonneoplastic effects_Epididymis - Hypospermia) was 25 mg/kg-day, the NOEL (Nonneoplastic effects_Forestomach - Epithelium, hyperplasia) was 25 mg/kg-day and the NOEL (Nonneoplastic effects_Forestomach - Inflammation, chronic active) was 25 mg/kg-day. It also gave an NOEL (Nonneoplastic effects_Kidney - Nephropathy, chronic progressive) of 25 mg/kg-day, an NOEL (Nonneoplastic effects_Kidney - Papilla, necrosis) of 25 mg/kg-day and an NOEL (Nonneoplastic effects_Liver - Hepatocyte, Necrosis) of 25 mg/kg-day. For the same compound, the LOEL (Nonneoplastic effects_Liver - Hepatocyte, cytoplasmic alteration) was 6.25 mg/kg-day, the LOEL (Nonneoplastic effects_Liver - Hepatocyte, hypertrophy) was 6.25 mg/kg-day and the NOEL (Nonneoplastic effects_Liver - Hepatocyte, vacuolization cytoplasmic) was 25 mg/kg-day. For the same compound, the NOEL (Nonneoplastic effects_Liver - Necrosis) was 25 mg/kg-day, the NOEL (Nonneoplastic effects_Lymph nodes - Mandibular, atrophy) was 25 mg/kg-day and the NOEL (Nonneoplastic effects_Lymph nodes - Mesenteric, atrophy) was 25 mg/kg-day. For the same compound, the NOEL (Nonneoplastic effects_Nose - Olfactory epithelium, degeneration) was 25 mg/kg-day, the NOEL (Nonneoplastic effects_Nose - Olfactory epithelium, hyperplasia) was 25 mg/kg-day and the NOEL (Nonneoplastic effects_Nose - Olfactory epithelium, inflammation, suppurative) was 25 mg/kg-day. It also gave an NOEL (Nonneoplastic effects_Nose - Olfactory epithelium, necrosis) of 25 mg/kg-day, an NOEL (Nonneoplastic effects_Nose - Respiratory epithelium, hyperplasia) of 25 mg/kg-day and an NOEL (Nonneoplastic effects_Nose - Respiratory epithelium, inflammation, chronic active) of 25 mg/kg-day. The NOEL (Nonneoplastic effects_Spleen - Atrophy) was 25 mg/kg-day, the NOEL (Nonneoplastic effects_Spleen - Extramedullary hematopoiesis, decreased) was 25 mg/kg-day and the NOEL (Nonneoplastic effects_Spleen - Extramedullary hematopoiesis, increased) was 25 mg/kg-day. It also gave an NOEL (Nonneoplastic effects_Stomach, forestomach - Epithelium, hyperplasia) of 25 mg/kg-day, an NOEL (Nonneoplastic effects_Testes - Germinal epithelium, degeneration) of 25 mg/kg-day and an NOEL (Nonneoplastic effects_Testes - Interstitial cell, atrophy) of 25 mg/kg-day. It also gave an NOEL (Nonneoplastic effects_Testes - Seminiferous tubule, spermatid retention) of 25 mg/kg-day, an NOEL (Nonneoplastic effects_Thymus - Atrophy) of 25 mg/kg-day and an NOEL (Nonneoplastic effects_Thymus - Lymphocyte, apoptosis) of 25 mg/kg-day. For the same compound, the NOEL (Nonneoplastic effects_Thyroid gland - Follicular cell hypertrophy) was 25 mg/kg-day, the LOEL (Organ weights_Heart - Absolute) was 25 mg/kg-day and the NOEL (Organ weights_Heart - Relative) was 25 mg/kg-day. It also gave an LOEL (Organ weights_Liver - Absolute) of 6.25 mg/kg-day, an LOEL (Organ weights_Liver - Relative) of 6.25 mg/kg-day and an NOEL (Organ weights_Lung - Absolute) of 25 mg/kg-day. It also gave an NOEL (Organ weights_Lung - Relative) of 25 mg/kg-day, an NOEL (Organ weights_R. adrenal gland - Absolute) of 25 mg/kg-day and an NOEL (Organ weights_R. adrenal gland - Relative) of 25 mg/kg-day. The LOEL (Organ weights_R. kidney - Absolute) was 6.25 mg/kg-day, the LOEL (Organ weights_R. kidney - Relative) was 6.25 mg/kg-day and the NOEL (Organ weights_R. testis - Absolute) was 25 mg/kg-day. It also gave an LOEL (Organ weights_Spleen - Absolute) of 6.25 mg/kg-day, an NOEL (Organ weights_Spleen - Relative) of 25 mg/kg-day and an NOEL (Organ weights_Thymus - Absolute) of 25 mg/kg-day. It also gave an NOEL (Organ weights_Thymus - Relative) of 25 mg/kg-day, an NOEL (Organ weights_Thyroid gland - Absolute) of 25 mg/kg-day and an LOEL (Reproductive toxicity_Altered sperm parameters) of 6.25 mg/kg-day. For the same compound, the NOEL (Survival rates) was 25 mg/kg-day.
